Laboratory results: patent US7138486B2, “Insulinotropic hormone derivatives and uses thereof” (The General Hospital Corporation, priority 1986, dated 2006)

Columns and labels:
[1] = test system: rat insulin I gene promoter in βTC-1 cells; assay: CAT activity in cells transiently transfected with −410 Ins-CAT plasmid; assay type: cell-based, mouse; conditions: 24 hours
Description: Cells of two 80–90% confluent 150 mm culture plates were trypsinized and transfected in solution in one tube with 15 μg of indicator plasmid using the DEAE-dextran method. The plasmid contained 410 bp of the rat insulin I gene promoter fused to the transcriptional reporter gene encoding the bacterial enzyme chloramphenicol-acetyltransferase (CAT). […] Subsequently cells were plated into 18 wells of six well plates. […] Thereby, differences in transfection deficiencies reflected in CAT activities were normalized against protein concentrations as well as the respective control experiments. After transfection cells were incubated in RPMI 1640 supplemented with 0.1% human serum albumin and 0.1% bacitracin. […] After extraction with ethylacetate (1 ml) acetylated and non-acetylated ^14C-chloramphenicol were separated by thin-layer chromatography (chloroform:methanol 9:1), identified by autoradiography and the respective spots were scraped from the plates and radioactivity was counted in a scintillation counter.

[2] = test system: βTC-1 cells; assay: Proinsulin biosynthesis ([3H]leucine labelling); assay type: cell-based, mouse; conditions: 6 hours labeling
Description: βTC-1 cells (Efrat et al., Proc. Natl. Acad. Sci. (USA) 85:9037–9041 (1988)) were grown in a humidified atmosphere at 37° C. in RPMI 1640 medium supplemented with 10% (vol/vol) fetal bovine serum, 5% (vol/vol) horse serum, 100 U/ml penicillin and 100 μg/ml streptomycin. Media were changed after three days and cells were split 1:3 after six days.
βTC-1 cells were plated into 35 mm plates and grown for two days to reach 80–90% confluency. During a 6 hour labeling period cells were incubated in 1 ml RPMI 1640 supplemented with 0.1% human serum albumin, 0.1% bacitracin and 50 μCi[^3H]leucine. Forskolin, IBMX, 8-Bromo-cAMP and GLP-1(7-37) were added from stock solutions as described (see “cell transfection”). Cells were harvested in PBS and lysed by three freeze-thaw cycles. Immunoreactive proinsulin was precipitated with an antiserum raised in rabbits against pork insulin that was coupled to a 10% suspension of bacterial lysates (Saureus) containing protein A. Radioactivity contained in the resulting pellets was counted using a lliquid scintillation counter. Incorporation of [^3H]leucine into total protein was measured in trichloroacetic acid precipitates of the cells. None of the agents tested had any effects on [^3H]leucine incorporation into TCA precipitable proteins. Data are expressed as fold-induction of proinsulin biosynthesis above those in the control experiments (no treatment).

[3] = test system: βTC-1 cells; assay: Cellular insulin content by radioimmunoassay; assay type: cell-based, mouse; conditions: 24 hours
Description: Two days before the experiment commenced, cells were plated into 35 mm plates. Media were changed to RPMI 1640 supplemented with 0.1% human serum albumin and 0.1% bacitracin. […] After incubation for 24 hours under these conditions, cells were washed three times with PBS and harvested in 1.5 ml buffer containing 150 mM NaCl, 1 mM EDTA and 40 mM Tris/Cl pH 7.4 and resuspended in 200 μl PBS. Fifty μl of this cell suspension were resuspended in 1 ml 1 M acetic acid and extracted for 16 hours at 4° C. Aliquots (2 and 20 μl) were lyophilized and reconstituted in insulin-RIA buffer. The cell number of each plate was controlled by determination of total protein in the initial cell lysate. […] Insulin was measured with a radioimmunoassay system using an antiserum raised in rabbits against pork insulin and pork insulin as the standard. […] Data are presented as fold-increase of insulin content per well above the control experiments (no treatment).

[4] = test system: rat pancreas; assay: Pancreatic perfusion assay of insulinotropic activity (effluent insulin); assay type: in vivo; conditions: for Insulinotropic activity (perfusate insulin): Table 6
Description: The in situ isolated perfused rat pancreas preparation was a modification of the method of Penhos, J. C., el al. (Diabetes 18:733–738 (1969)). In accordance with such a method, fasted rats (preferably male Charles River strain albino rats), weighing 350–600 g, are anesthetized with an intraperitoneal injection of Amytal Sodium (Eli Lilly and Co., 160 ng/kg). Renal, adrenal, gastric, and lower colonic blood vessels are ligated. The entire intestine is resected except for about four cm of duodenum and the descending colon and rectum. […] The perfusate is preferably a modified Krebs-Ringer bicarbonate buffer with 4% dextran T70 and 0.2% bovine serum albumin (fraction V), and is preferably bubbled with 95% O2 and 5% CO2. A nonpulsatile flow, four-channel roller-bearing pump (Buchler polystatic, Buchler Instruments Division, Nuclear-Chicago Corp.) is preferably used, and a switch from one perfusate source to another is preferably accomplished by switching a three-way stopcock.
Isolated rat pancreas was prepared according to the method of Weir, G. C., et al., (J. Clin. Invest. 54:1403–1412 (1974)), and Penkos, J. C., et al. (Diabetes 18:733–738 (1969)). The perfusate contained bicarbonate buffer (pH 7.4) and 120 mg/dl glucose, 4% dextran T-70, and 0.2% bovine serum albumin, and was equilibrated with 95% oxygen and 5% carbon dioxide. The first 20 minutes of each perfusion was an equilibrium period. After this initial period, aliquots of perfusate were removed every 2–4 min for additional 20 min, thus allowing the system to equilibrate for a total of 40 min. The perfusion, including any added insulinotropic peptide, was for 6 min and samples were collected at 1-min intervals. When more than one perfusion was to be performed, the peptide perfusions were followed by equilibration periods of 20 min, during which four samples 5 min apart were collected. […] Again, samples 1 min apart were collected. The entire perfusion time was between 70 and 85 min.
In each aliquot of perfusate obtained, insulin was determined by radioimmunoassay. […] At one minute intervals, pancreas effluent insulin levels in picograms/ml were determined by radioimmunoassay (as described above).

[5] = test system: RIN 1046-38 cells; assay: Levels of insulin, actin and angiotensinogen mRNAs by Northern blot densitometry; assay type: cell-based, rat
Description: Rat insulinoma cells of cell line RIN-38 were derived from a continuous islet cell line, RIN-r, which was established from a transplantable rat islet cell tumor (Gazdar, A. F., et al., Proc. Natl. Acad. Sci., USA 77:3519–3523 (1980)). The cells were maintained in DMEM (Gibco) at a glucose concentration of 4,500 mg/L and supplemented with 10% heat-inactivated fetal bovine serum (Gibco), 100 U/ml of penicillin and 100 μg/ml of streptomycin. Incubations were carried out at 37° C. in 95% air:5% CO2. Cells grown in the above manner were washed and resuspended in DMEM (Gibco) containing 0.1% bovine serum albumin and 25 mM glucose. […] Incubations were for six hours.
Messenger RNAs specific for insulin, actin, or angiotensinogen were identified by Northern hybridization as follows: cellular RNA was extracted from solid tumors and cells by homogenization in guanidine thiocyanate and sedimentation through a cesium chloride cushion. Poly A^+ RNA was isolated by oligo dT cellulose chromatography (Aviv, H., et al., Proc. Natl. Acad. Sci., USA 69:1408–1412 (1972)). Twenty micrograms of total RNA from each sample were fractionated by size on a 1.4% agarose gel after denaturation in glyoxal, followed by electrotransfer to a nylon membrane (Nytran; Schleicher and Schuell). Blotted membranes were baked for two hours at 80° C. under vacuum, prehybridized in 1M NaCl/1% SDS/10% Dextran sulfate at 50° C. overnight and hybridized at the same temperature for 24 h after addition of the labeled probes (3–5×10^5 cpm/ml); they were then washed at 55° C. twice in 1×SCC (0.15M NaCl/0.015 M Na citrate)/1% SDS), and exposed to X-ray film for varying times at −70° C. with an intensifying screen. The relative amounts of the specific mRNA were determined by microdensitometry.

[6] = test system: RIN 1046-38 cells; assay: cAMP formation in insulinoma cell line; assay type: cell-based, rat
Description: Cells were grown as described in Example 1, in […] culture dishes. Varying amounts of glucagon-like peptides were added to culture wells in triplicate. […] Twenty microliters from each culture well was assayed.
Insulinotropic activity was monitored as described by Mojsov, S., et al., (J. Clin. Invest. 79:616–619 (1987)) and Drucker, D. J., et al., (Proc. Natl Acad. Sci. 84:3434–3438 (1987)), both of which references are incorporated by reference herein. […]

Compound: C=C[C@@]1(C)CC(=O)[C@]2(O)[C@@]3(C)[C@@H](O)CCC(C)(C)[C@@H]3[C@H](O)[C@H](OC(C)=O)[C@@]2(C)O1 [Forskolin, forskolin]
- Increase of CAT activity ([1]; 10 μM): 3.3±0.57 fold
- Increase of proinsulin biosynthesis ([2]; 10 μM): 1.53±0.06 fold
- Increase of total cellular insulin content ([3]; 10 μM): 1.49±0.18 fold

Compound: CC(C)Cn1c(=O)n(C)c(=O)c2[nH]cnc21 [IBMX]
- Increase of CAT activity ([1]; 0.5 mM): 2.6±0.16 fold
- Increase of proinsulin biosynthesis ([2]; 0.5 mM): 1.53±0.06 fold
- Increase of total cellular insulin content ([3]; 0.5 mM): 1.30±0.12 fold

Compound: GLP-1(7-34): derivative of GLP-1(1-37), amino acids 7-34 (HAEGTFTSDVSSYLEGQAAKEFIAWLVK; Glucagon-like peptide 1; UniProt P01275 98-125, looked up, fragment)
- Insulinotropic activity ([4]; 10^−11 M, five minute perfusions, FIG. 4): detectable insulinotropic activity

Compound: GLP-2: glucagon-like peptide 2, 34 amino acid residues long
- Effects on insulin mRNA levels [5]: no effects
- Stimulation of cAMP levels ([6]; even at 10^−11 M): neither GLP-1(1-37) nor GLP-2 (GLP-2) exhibited such activity

Compound: GLP-1(7-36)-NH2: GLP-1(7-36) with the C-terminal residue, arginine, in amidated form as arginineamide
- cAMP formation ([6]; IBMX 100 uM, peptide 10^−7 M): 358 ± 32 fmoles/10 ul of cell extract
- cAMP formation ([6]; IBMX 100 uM, peptide 10^−9 M): 225 ± 16 fmoles/10 ul of cell extract
- cAMP formation ([6]; IBMX 100 uM, peptide 10^−11 M, 10 minutes, control 161 ± 10): 141 ± 5 fmoles/10 ul of cell extract
- cAMP formation ([6]; IBMX 500 uM, peptide 10^−7 M): 1676 ± 113 fmoles/10 ul of cell extract
- cAMP formation ([6]; IBMX 500 uM, peptide 10^−9 M): 1199 ± 41 fmoles/10 ul of cell extract
- cAMP formation ([6]; IBMX 500 uM, peptide 10^−11 M, control 540 ± 22): 446 ± 38 fmoles/10 ul of cell extract
- Insulinotropic activity (perfusate insulin) ([4]; time +1 minute): 4550 ± 703
- Insulinotropic activity (perfusate insulin) ([4]; time +2 minutes): 3330 ± 637
- Insulinotropic activity (perfusate insulin) ([4]; time +3 minutes): 2500 ± 564
- Insulinotropic activity (perfusate insulin) ([4]; time −1 minute (before peptide), 5 minute perfusion): 985 ± 275
- Potency as secretagogue, 7-37 form versus 7-36-amide ([4]; perfused rat pancreas): equally potent secretagogues

Compound: His-Ala-Glu-Gly-Thr-Phe-Thr-Ser-Asp-Val-Ser-Ser-Tyr-Leu-Glu-Gly-Gln-Ala-Ala-Lys-Glu-Phe-Ile-Ala-Trp-Leu-Val-Lys-Gly-Arg (HAEGTFTSDVSSYLEGQAAKEFIAWLVKGR; printed: His-Ala-Glu-Gly-Thr-Phe-Thr-Ser-Asp-Val-Ser-Ser-Tyr-Leu-Glu-Gly-Gln-Ala-Ala-Lys-Glu-Phe-Ile-Ala-Trp-Leu-Val-Lys-Gly-Arg) [GLP-1(7-36), GLP-1 polypeptide having all amino acids from number 7 through number 36]
- Insulinotropic activity compared with GLP-1(7-37) ([4]; 10^−11M): equiavlent to GLP-1(7-37)
